Kd data for one compound are collected here from PMC8331687 (ACS chemical biology, 2020).

The target in this assay is T1, ObiH (Pseudomonas fluorescens, UniProt A0A1X9LWZ7).
T1 sequence (A0A1X9LWZ7 1-440): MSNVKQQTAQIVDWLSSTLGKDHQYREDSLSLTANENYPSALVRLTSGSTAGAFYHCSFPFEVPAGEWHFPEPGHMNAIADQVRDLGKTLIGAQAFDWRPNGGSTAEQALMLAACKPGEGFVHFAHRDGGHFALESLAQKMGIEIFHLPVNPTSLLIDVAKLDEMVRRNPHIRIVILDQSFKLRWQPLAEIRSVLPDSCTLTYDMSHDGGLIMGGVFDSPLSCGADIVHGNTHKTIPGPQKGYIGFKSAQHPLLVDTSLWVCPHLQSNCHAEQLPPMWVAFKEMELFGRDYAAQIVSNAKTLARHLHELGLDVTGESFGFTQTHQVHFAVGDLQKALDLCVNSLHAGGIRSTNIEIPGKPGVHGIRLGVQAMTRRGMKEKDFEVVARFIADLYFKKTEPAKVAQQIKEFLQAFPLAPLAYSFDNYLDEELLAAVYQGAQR
In words: UV-vis titration of quinonoid at […] nm. In kind it is binding.

A word on the Kd: it is the constant that tells how readily two partners part at equilibrium. Lower therefore signals tighter binding.

`CC=O` [acetaldehyde] displayed a Kd of 430 ± 15 µM.
